Measured values reported in patent US7038055B2, “Sulfone derivatives and their use in the treatment of autoimmune diseases and allergies” (SmithKlineBeecham plc, priority 2001, dated 2006).

How the values were obtained:
[1] = biological target: T1, human recombinant collagenase (Homo sapiens, UniProt P03956); assay: Collagenase Inhibition Assay; assay type: biochemical; settings: 37° C., 18 h, 3H type 1 bovine collagen; read-out: IC50, collagenase inhibition (procedure 2)
T1 construct: made in house; host or cells: E. coli
T1 sequence (P03956 100-469): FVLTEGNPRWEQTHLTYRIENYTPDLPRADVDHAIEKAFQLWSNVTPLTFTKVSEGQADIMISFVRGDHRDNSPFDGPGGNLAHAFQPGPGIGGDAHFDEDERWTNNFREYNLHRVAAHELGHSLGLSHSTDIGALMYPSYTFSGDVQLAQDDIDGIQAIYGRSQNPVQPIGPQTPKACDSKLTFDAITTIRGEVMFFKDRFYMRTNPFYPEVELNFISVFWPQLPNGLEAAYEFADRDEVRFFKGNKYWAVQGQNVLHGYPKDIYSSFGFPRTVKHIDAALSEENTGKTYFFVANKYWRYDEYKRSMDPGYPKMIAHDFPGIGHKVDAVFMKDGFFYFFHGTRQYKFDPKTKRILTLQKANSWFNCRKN
Description: Procedure 2: The ability of test compounds to inhibit matrix metalloproteases was investigated using the following procedures.
Collagenase Inhibition Assay:
The potency of compounds to act as inhibitors of collagenase was determined by the method of Cawston and Barrett (Anal. Biochem. 99, 340–345, 1979), hereby incorporated by reference, whereby a 1 mM solution of the inhibitor being tested or dilutions thereof, was incubated at 37° C. for 18 h with collagen and human recombinant collagenase, from synovial fibroblasts cloned, expressed and purified from E. Coli, (buffered with 150 mM Tris, pH 7.6, containing 15 mM calcium chloride, 0.05% Brij 35, 200 mM sodium chloride and 0.02% sodium azide). The collagen was acetylated ^3H type 1 bovine collagen prepared by the method of Cawston and Murphy (methods in Enzymology 80, 711, 1981) The samples were centrifuged to sediment undigested collagen and an aliquot of the radioactive supernatant removed for assay on a scintillation counter as a measure of hydrolysis. The collagenase activity in the presence of 1 mM inhibitor, or dilution thereof, was compared to activity in a control devoid of inhibitor and the results reported as that concentration effecting 50% of the collagenase (IC50).

[2] = test system: CD23 cleavage activity (release of soluble CD23) in RPMI 8866 cell plasma membranes; assay: RPMI 8866 Cell Membrane CD23 Cleavage Activity Assay; assay type: biochemical, human; settings: RPMI 8866 plasma membranes, 37° C., sCD23 by EIA; read-out: IC50, inhibition of production of sCD23
Description: Procedure 1: The ability of test compounds to inhibit the release of soluble CD23 was investigated by use of the following procedure.
RPMI 8866 Cell Membrane CD23 Cleavage Activity Assay:
Plasma membranes from RPMI 8866 cells, a human Epstein-Barr virus transformed B-cell line (Sarfati et al., Immunology 60 [1987] 539–547) expressing high levels of CD23 are purified using an aqueous extraction method. Cells resuspended in homogenization buffer (20 mM HEPES pH 7.4, 150 mM NaCl, 1.5 mM MgCl2, 1 mM DTT) are broken by N2 cavitation in a Parr bomb and the plasma membrane fraction mixed with other membranes is recovered by centrifugation at 10,000×g. […]
The fractionated membranes are incubated at 37° C. for times up to 4 hrs to produce fragments of CD23 which are separated from the membrane by filtration in 0.2 micron Durapore filter plates (Millipore) after quenching the assay with a non-selecitve MMP inhibitor, e.g. 5 uM Preparation 1 from WO 95/31457 ([4-(N-Hydroxyamino)-2-(R)-isobutyl-3-(S)-(2-thiophenethiomethyl)succinyl]-(S)-phenylalanine-N-methylamide sodium salt, prepared according to the procedure described in Example 11 of WO 90/05719). sCD23 released from the membrane is determined using the EIA kit from The Binding Site (Birmingham, UK) or a similar one utilising MHM6 anti-CD23 mAb [Rowe et al., Int. […]

MMP-13 = biological target: T2, MMP-13 (Homo sapiens, UniProt P45452); assay: General MMP Inhibition Assay, fluorescence quench (MMP-13); assay type: biochemical; settings: room temperature
T2 construct: purchased Calbiochem
Description: (§1) General MMP Inhibition Assays:
(§2) Inhibition of matrix metalloprotease activity was determined using a fluorescence quench assay with appropriate substrate. For example, MMP activity was determined using MMP activated using trypsin, according to Lark et al, Connective Tissue Res. 25, 52 (1990). The MMP is incubated at room temperature in a microtitre plate in a total volume of 100 ul, containing 0.15 M Tris Cl, 15 mM CaCl2, 0.2 M NaCl, pH 7.6 (assay buffer); inhibitor at concentrations up to 100 uM, with no more than 2% DMSO final concentration, 10 uM substrate (such as SDP-3815-PI for MMP-1, Peptides International). The MMP concentration is <10 nM, and determined empirically with the appropriate substrate to give at least a 20-fold increase in fluorescence emission in 30 min. Fluorescent excitation wavelength was 355 nm, emission wavelength 400–460 nm, and data points are collected to generate slope (change in fluorescence with time). Percent inhibition for each concentration is calculated from the slope at time zero, and IC50 values from the concentration dependence. MMP-1, 2, 3, 7, 9, 13, 14 may all be assayed in the same manner, using commercially available substrates reported to be effective for each enzyme. Enzymes were obtained from Calbiochem and activated using the same trypsin method.

MMP-3 = biological target: T3, MMP-3 (Homo sapiens, UniProt P08254); assay: General MMP Inhibition Assay, fluorescence quench (MMP-3); assay type: biochemical; settings: room temperature
T3 construct: purchased Calbiochem
T3 sequence (P08254 100-477, species assumed): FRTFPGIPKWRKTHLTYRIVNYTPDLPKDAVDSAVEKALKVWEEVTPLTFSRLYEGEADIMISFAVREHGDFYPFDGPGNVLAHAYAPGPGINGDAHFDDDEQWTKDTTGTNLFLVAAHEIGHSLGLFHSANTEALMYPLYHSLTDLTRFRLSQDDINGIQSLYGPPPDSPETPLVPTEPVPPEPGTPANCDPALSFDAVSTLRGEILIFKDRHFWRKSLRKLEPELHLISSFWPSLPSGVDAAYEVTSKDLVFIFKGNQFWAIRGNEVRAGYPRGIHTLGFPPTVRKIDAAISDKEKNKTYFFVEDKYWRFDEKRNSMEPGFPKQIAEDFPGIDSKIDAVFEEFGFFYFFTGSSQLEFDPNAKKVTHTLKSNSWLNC
Description: as §1, §2

CO[C@H](C)[C@@H](CS(=O)(=O)Cc1cnc2ccccc2c1)N(O)C=O [Example 1, N-[(2S,3R)-3-methoxy-1-(quinolin-3-yl-methanesulfonyl)butan-2-yl]-hydroxyformamide]
IC50 [1]: > 10 µM | IC50 [2]: 0.02 µM | IC50 (MMP-13): 2.6 µM | IC50 (MMP-3): > 10 µM

CO[C@@H](C)C(CS(=O)(=O)Cc1cnc2ccccc2c1)N(O)C=O (stereo in doubt) [Example 2, N-[(2R,3S)-3-methoxy-1-(quinolin-3-yl-methanesulfonyl)butan-2-yl]-hydroxyformamide]
IC50 (MMP-13): 3 µM
